According to patent publication US4668677A, “4-phenylphthalazine derivatives, their preparation and their use as pharmaceuticals” (Mitsubishi Chemical Industries Limited, priority 1984, dated 1987):
Structures can show the parent of a compound that is named as a salt.

Experiments:
[1] = system: cerebral cortex; assay: Activity to increase topical cerebral blood flow, cerebral cortex (heat clearance method); assay type: in vivo, rabbit (male New Zealand White); details: change in blood flow expressed in terms of voltage
Procedure: (§1) The compound of this invention was dissolved in an aqueous solution containing 1% tartaric acid and 1% dimethylacetamide, while papaverine hydrochloride dissolved in 0.9% physiological saline. These test compounds were intravenously given through a residual polyethylene tube within femoral vein.
(§2) Physiol. Scand., 67, 1 (1966); "Kokyu to Junkan" (in Japanese), 15, 435 (1967); the Journal of the Pharmacological Society of Japan, 71, 709 (1975)]. Simultaneously, blood pressure in femoral artery was also determined. Preparation and administration of test compounds were carried out in the same manner as in the above item (6).

[2] = system: femoral artery; assay: Blood pressure in femoral artery, topical cerebral blood flow test; assay type: in vivo, rabbit (male New Zealand White)
Procedure: as §1, §2

[3] = system: femoral artery; assay: Action on blood pressure in femoral artery; assay type: in vivo, rabbit (male New Zealand White)
Procedure: (§3) Male New Zealand White rabbits (body weight of 2.8 Kg to 3.5 Kg) were used and anesthetized with pentobarbital sodium. Blood flow volumes in the carotid artery and femoral artery were measured and recorded via a non-blood observing type of a probe for measuring blood flow volume. Also, blood pressure in femoral artery was simultaneously measured and recorded with measurement of blood flow.
as §1

[4] = system: candate nucleus; assay: Activity to increase topical cerebral blood flow, candate nucleus (heat clearance method); assay type: in vivo, rabbit (male New Zealand White); details: change in blood flow expressed in terms of voltage
Procedure: as §1, §2

[5] = system: femoral artery; assay: Action on blood flow volume in femoral artery; assay type: in vivo, rabbit (male New Zealand White)
Procedure: as §3, §1

[6] = system: Thoracic aorta; assay: Calcium antagonistic activity (relaxation of thoracic aorta); assay type: cell-based, rat (male Wistar strain); details: Rattus norvegicus; final concentration 10 μM; 10 mM CaCl2
Procedure: Thoracic aorta was removed from male Wistar strain rats with a body weight of 350 g to 450 g and then spiral-shaped pieces of aorta were prepared therefrom. […] Thereafter, samples were further stabilized in Krebs-Henseleit solution containing no CaCl2 over 1 hour and then in a 80 mM KCl nutritive liquid wherein NaCl was exchanged with an equimolar KCl (depolarized liquid) over a further one hour. Then, samples were washed with the depolarized liquid and loaded with a static tension of 1.0 g. When CaCl2 was added to the nutritive liquid so as to reach a final concentration of 10 mM, tension was produced in samples and, after 15-20 minutes from the addition of CaCl2, the maximum tension was obtained. At this point, test compounds were applied and relaxing activity of test compounds was evaluated. Tension was determined in equal dimension.
Relaxation rate was calculated according to the following equation: [formula] A: Maximum tension generated B: Generated tension retained after administration of test compound
All test compounds were given in the form of a solution in dimethyl sulfoxide at a dose of 0.1 ml, whereupon a final concentration of dimethyl sulfoxide itself was adjusted to 0.5 V/V %.

[7] = system: carotid artery; assay: Action on blood flow volume in carotid artery; assay type: in vivo, rabbit (male New Zealand White)
Procedure: as §3, §1

[8] = system: mice; assay: Anti-thrombotic activity: arachidonic acid-induced mortality in mice; assay type: in vivo, mouse (male ICR-JCL strain); details: for Survival time of dead mice: arachidonic acid 100 mg/Kg i.v.; for Mortality: arachidonic acid 100 mg/Kg i.v. after 1 hour
Procedure: (§4) Male ICR-JCL strain mice with an average body weight of about 25 g and male New Zealand White rabbits with an average body weight of about 3 Kg were used.
Where mice were used as experimental animals, a suspension of the test compound indicated in Table 3 in a 1% tragacanth aqueous solution was orally administered to animals at 20 ml/Kg. One hour after the administration, an arachidonic acid (PL-biochemical Co., Inc.) solution dissolved in a 0.1M sodium carbonate aqueous solution was intravenously given at 100 mg/Kg. Evaluation of activity was effected with the time from the administration of arachidonic acid up to the death of animals as well as mortality.

[9] = system: rabbits; assay: Anti-thrombotic activity: arachidonic acid-induced mortality in rabbits; assay type: in vivo, rabbit (male New Zealand White); details: of 4 rabbits
Procedure: as §4
Where rabbits were used as experimental animals, a suspension of the test compound in a 1% tragacanth aqueous solution was orally administered to animals at 5 ml/Kg. Two hours after the administration, an arachidonic acid solution dissolved in a 0.1M potassium carbonate solution was injected into pinna vein at 1.4 mg/Kg.
Evaluation of activity was effected with mortality at the time when arachidonic acid given. If survived at the first administration of arachidonic acid, arachidonic acid was administered after 6 hours, 24 hours, 48 hours and 72 hours from the administration of the test compound, respectively, and mortality was determined in respective cases.

[10] = system: blood platelets; assay: Activity to inhibit the aggregation of blood platelets (collagen, ex vivo after oral administration); assay type: in vivo, rat (male Wistar-ST strain); details: Rattus norvegicus, Platelet; 10 mg/Kg oral, 1 hour after administration; collagen 7 to 10 μg/ml; read-out: Inhibitory rate (blood platelet aggregation)
Procedure: Male Wistar-ST strain rats of an average body weight of 250 g were used, a group consisting of 8 animals. The test compound indicated in the following Table 1 was orally administered to rats in the form of a suspension in a 1% tragacanth aqueous solution at 4 ml/Kg (the test compound 10 mg/Kg).
One hour after the administration, blood samples were obtained from the carotid artery by means of a cannule. […] Tubes were turned upside-down and then subjected to centrifugation at 200×g over 15 minutes to assign the supernatant as a platelet-rich plasma (PRP). The residue was further centrifuged at […] over 15 minutes to assign the supernatant as a platelet-poor plasma (PPP). These supernatants were applied for determining the ability to aggregate blood platelets. […] As an aggregation inducing agent, collagen (availale from Hormon-chemie A.G.) was used at a concentration of 7 to 10 μg/ml.
Inhibitory rate to aggregate blood platelets was calculated according to the following equation: [formula] A: […] in the group to which the 1% tragacanth solution alone was given (Control)
B: Aggregation rate in the group to which the tragacanth solution of the test compound was given.

[11] = in vivo; details: rat, po, rats

## COc1ccc(Cc2nccc3cc(OC)c(OC)cc23)cc1OC [Papaverine hydrochloride, papaverine hydrochloride, reference compound]
[1]; 0.3 mg/Kg i.v.
  Increase in topical blood flow volume, Cerebral cortex: 0.57 ± 0.11 Δ μV
[1]; 1 mg/Kg i.v.
  Increase in topical blood flow volume, Cerebral cortex: 1.05 ± 0.21 Δ μV
[2]; 0.3 mg/Kg i.v.
  Lowering of blood pressure in femoral artery: 15.0 ± 1.2%
[2]; 1 mg/Kg i.v.
  Lowering of blood pressure in femoral artery: 20.8 ± 3.4%
[3]; 0.5 mg/kg i.v.
  Blood pressure in femoral artery, A: Before administration: 94.8 mmHg
  Blood pressure in femoral artery, B: After administration: 82.4 mmHg
  Blood pressure in femoral artery, E: Lowering degree: 12.4 mmHg
  Blood pressure in femoral artery, F: Lowering rate: 13.2%
[3]; 1.0 mg/kg i.v.
  Blood pressure in femoral artery, A: Before administration: 91.8 mmHg
  Blood pressure in femoral artery, B: After administration: 68.8 mmHg
  Blood pressure in femoral artery, E: Lowering degree: 23.1 mmHg
  Blood pressure in femoral artery, F: Lowering rate: 25.3%
[4]; 0.3 mg/Kg i.v.
  Increase in topical blood flow volume, Candate nucleus: 0.19 ± 0.04 Δ μV
[4]; 1 mg/Kg i.v.
  Increase in topical blood flow volume, Candate nucleus: 0.35 ± 0.07 Δ μV
[5]; 0.5 mg/Kg i.v.
  Blood flow volume in femoral artery, A: Before administration: 16.8 mL/min
  Blood flow volume in femoral artery, B: After administration: 23.0 mL/min
[5]; 0.5 mg/kg i.v.
  Blood flow volume in femoral artery, C: Increase degree: 6.1 mL/min
  Blood flow volume in femoral artery, D: Increase rate: 40.3%
[5]; 1.0 mg/Kg i.v.
  Blood flow volume in femoral artery, A: Before administration: 30.1 mL/min
  Blood flow volume in femoral artery, B: After administration: 40.0 mL/min
[5]; 1.0 mg/kg i.v.
  Blood flow volume in femoral artery, C: Increase degree: 9.8 mL/min
  Blood flow volume in femoral artery, D: Increase rate: 32.7%
[6]
  inhibition at 10 µM: 0%
[7]; 0.5 mg/Kg i.v.
  Blood flow volume in carotid artery, A: Before administration: 18.6 mL/min
  Blood flow volume in carotid artery, B: After administration: 38.7 mL/min
  Blood flow volume in carotid artery, C: Increase degree: 20.1 mL/min
  Blood flow volume in carotid artery, D: Increase rate: 108.3%
[7]; 1.0 mg/Kg i.v.
  Blood flow volume in carotid artery, A: Before administration: 19.3 mL/min
  Blood flow volume in carotid artery, B: After administration: 26.3 mL/min
  Blood flow volume in carotid artery, C: Increase degree: 7.0 mL/min
  Blood flow volume in carotid artery, D: Increase rate: 33.2%

## Clc1ccccc1CN1CCc2sccc2C1 [Ticlopidine, ticlopidine, reference compound]
[8]; 300 mg/Kg oral
  Survival time of dead mice: 81 ± 13 s
  Mortality: 100%
[8]; 1000 mg/Kg oral
  Survival time of dead mice: 128 ± 18 s
  Mortality: 100%
[9]; 30 mg/Kg oral, 2 hrs. after administration
  Mortality (number of rabbits): 4
[9]; 100 mg/Kg oral, 2 hrs. after administration
  Mortality (number of rabbits): 3
[9]; 100 mg/Kg oral, 6 hrs. after administration
  Mortality (number of rabbits): 1

## CCCNc1nnc(-c2ccccc2)c2ccccc12 [compound 1]
[10]
  inhibition at 10 mg/kg: 27.6%

## CC(C)Nc1nnc(-c2ccccc2)c2ccccc12 [compound 2]
[10]
  inhibition at 10 mg/kg: 7.1%

## CCCCNc1nnc(-c2ccccc2)c2ccccc12 [compound 3]
[10]
  inhibition at 10 mg/kg: 0%

## CC(C)CNc1nnc(-c2ccccc2)c2ccccc12 [compound 4]
[10]
  inhibition at 10 mg/kg: 0%

## CCC(C)Nc1nnc(-c2ccccc2)c2ccccc12 (stereo not shown) [compound 5]
[10]
  inhibition at 10 mg/kg: 0%

## CC(C)(C)Nc1nnc(-c2ccccc2)c2ccccc12 [compound 6]
[10]
  inhibition at 10 mg/kg: 0%

## CCCCCNc1nnc(-c2ccccc2)c2ccccc12 [compound 7]
[10]
  inhibition at 10 mg/kg: 6.2%
[11]
  LD50: 1780 mg/kg

## CCCC(C)Nc1nnc(-c2ccccc2)c2ccccc12 (stereo not shown) [compound 8]
[10]
  inhibition at 10 mg/kg: 0%

## CCC(C)CNc1nnc(-c2ccccc2)c2ccccc12 (stereo not shown) [compound 9]
[10]
  inhibition at 10 mg/kg: 79.2%
[11]
  LD50: 2180 mg/kg

## CC(C)C(C)Nc1nnc(-c2ccccc2)c2ccccc12 (stereo not shown) [compound 10]
[10]
  inhibition at 10 mg/kg: 54.1%
[11]
  LD50: 2530 mg/kg

## CC(C)CCNc1nnc(-c2ccccc2)c2ccccc12 [compound 11]
[10]
  inhibition at 10 mg/kg: 24%

## CCC(C)(C)Nc1nnc(-c2ccccc2)c2ccccc12 [compound 12]
[10]
  inhibition at 10 mg/kg: 0%

## c1ccc(-c2nnc(NC3CCCC3)c3ccccc23)cc1 [compound 13]
[10]
  inhibition at 10 mg/kg: 0%

## CCCCCCNc1nnc(-c2ccccc2)c2ccccc12 [compound 14]
[10]
  inhibition at 10 mg/kg: 15.6%

## CCC(CC)CNc1nnc(-c2ccccc2)c2ccccc12 [compound 15]
[10]
  inhibition at 10 mg/kg: 14.6%

## CC(C)CC(C)Nc1nnc(-c2ccccc2)c2ccccc12 (stereo not shown) [compound 16]
[10]
  inhibition at 10 mg/kg: 0%

## CC(C)(C)CCNc1nnc(-c2ccccc2)c2ccccc12 [compound 17]
[10]
  inhibition at 10 mg/kg: 17.3%

## c1ccc(-c2nnc(NC3CCCCC3)c3ccccc23)cc1 [compound 18]
[10]
  inhibition at 10 mg/kg: 0%

## CCCCCCCNc1nnc(-c2ccccc2)c2ccccc12 [compound 19]
[10]
  inhibition at 10 mg/kg: 0%

## CCCCCCCCNc1nnc(-c2ccccc2)c2ccccc12 [compound 20]
[10]
  inhibition at 10 mg/kg: 0%
